Laboratory results from paper PMC3597726, “N-Substituted Benzyl Matrinic Acid Derivatives Inhibit Hepatitis C Virus (HCV) Replication through Down-Regulating Host Heat-Stress Cognate 70 (Hsc70) Expression” (PLoS ONE, 2013).
pEC50: −log10 of the molar value. “Also recorded” adds a separate entry of the source. Like-named read-outs stand apart in the source and are kept apart here.

Columns and labels:
[1] = system: HCV (recombination virus strain J6/JFH/JC); experiment: Anti-HCV activity in Huh7.5 cells, intracellular HCV RNA by real-time RT-PCR; format: cell-based, hepatitis C virus (HCV); conditions: for pEC50: anti-HCV activity, 72 h, HCV RNA by RT-PCR
Procedure: (§1) All of the synthesized compounds were examined for their anti-HCV activity and cytotoxicity in Huh 7.5 cells using specific real-time RT-PCR assay, as described in our previous publication. Anti-HCV activity was evaluated by measuring both EC50 (for anti-HCV activity) and CC50 (for cytotoxicity) values. As a key indication, the selectivity index (SI) was calculated as a ratio of CC50 to EC50. Anti-HCV activity of the study compound was estimated by combining its EC50 value with SI.
Huh7.5 cells were seeded into 96-well or 6-well plates (Costar) at a density of 3×10^4 cells/cm^2. After 24 h incubation, the cells were infected with HCV viral stock (recombination virus strain J6/JFH/JC, 45 IU/cell) and simultaneously treated with the test compounds at various concentrations.
(§2) Concentrations or solvent as the control. The culture medium was removed after 72 h incubation, the intracellular total RNA (in 96-well plates) was extracted with RNeasy Mini Kit (Qiagen), and total intracellular proteins (in 6-well plates) were extracted with Cyto-Buster Protein Extraction Reagent added with 1 mM protease inhibitor cocktail. The intracellular HCV RNA was quantified with a real time one-step reverse-transcription polymerase chain reaction (RT-PCR). HCV core protein was detected with western blot (see below).

Huh7.5 cells = experiment: Cytotoxicity assay (MTT) in Huh7.5 cells; format: cell-based, Human
Procedure: as §1
Huh7.5 cells were seeded into 96-well plates (Costar) at a density of 3×10^4 cells/cm^2. After 24 h incubation. Fresh culture medium containing test compounds at various concentrations were added. 72 h later, Cytotoxicity was evaluated with 3-(4,5-Dimethylthiazol-2-yl)-2,5-diphenyltetrazolium bromide (MTT).

HCV NS3 = experiment: Intracellular HCV NS3 protein level in infected Huh7.5 cells (Western blot); format: cell-based, hepatitis C virus (HCV)
Hsc70 = Hsc70 protein expression in Huh7.5 cells (Western blot); format: cell-based, Human; conditions: Huh7.5 cells, 31.25, 62.5, 125 and 250 µg/mL, 72 h
Procedure: as §2
The extracted total protein were denatured by adding 5× loading buffer (250 mM Tris-HCl, pH 6.8, 5% dithiothreitol, 10% SDS, 0.5% bromophenol blue, 50% glycerol), followed by boiling for 10 min. Proteins were analyzed with SDS-PAGE, then transfered onto nitrocellulose membranes by electroblotter. The membranes were blocked in 5% nonfat dry milk in TBS-T solusion (20 mM Tris, 150 mM NaCl, 0.1% Tween-20) for 1 h, and washed three times for 10 min each in the TBS-T. Membrane samples were probed with monoclonal antibody specific for protein of HCV core or Hsc70. As a control, monoclonal antibody to actin was used. […] Protein was detected using Immbilon Western Chemiluminescent HRP Substrate (Millipore Inc.) with Alpha Innotech Focus and Image Acquisition.

HCV NS3/4A protease = molecular target: T1, HCV NS3/4A protease (Hepatitis C virus genotype 2a, UniProt Q99IB8); format: biochemical; conditions: 250 µg/mL, in the lysates
T1 construct: HCV NS3/4A protease activity (Michaelis constant Km = 0.60 µM) in the lysates; endogenous in cells; host or cells: lysates
T1 sequence (Q99IB8 1662-1715): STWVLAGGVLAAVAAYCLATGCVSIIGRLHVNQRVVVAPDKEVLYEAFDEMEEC
T1 sequence (Q99IB8 1031-1661): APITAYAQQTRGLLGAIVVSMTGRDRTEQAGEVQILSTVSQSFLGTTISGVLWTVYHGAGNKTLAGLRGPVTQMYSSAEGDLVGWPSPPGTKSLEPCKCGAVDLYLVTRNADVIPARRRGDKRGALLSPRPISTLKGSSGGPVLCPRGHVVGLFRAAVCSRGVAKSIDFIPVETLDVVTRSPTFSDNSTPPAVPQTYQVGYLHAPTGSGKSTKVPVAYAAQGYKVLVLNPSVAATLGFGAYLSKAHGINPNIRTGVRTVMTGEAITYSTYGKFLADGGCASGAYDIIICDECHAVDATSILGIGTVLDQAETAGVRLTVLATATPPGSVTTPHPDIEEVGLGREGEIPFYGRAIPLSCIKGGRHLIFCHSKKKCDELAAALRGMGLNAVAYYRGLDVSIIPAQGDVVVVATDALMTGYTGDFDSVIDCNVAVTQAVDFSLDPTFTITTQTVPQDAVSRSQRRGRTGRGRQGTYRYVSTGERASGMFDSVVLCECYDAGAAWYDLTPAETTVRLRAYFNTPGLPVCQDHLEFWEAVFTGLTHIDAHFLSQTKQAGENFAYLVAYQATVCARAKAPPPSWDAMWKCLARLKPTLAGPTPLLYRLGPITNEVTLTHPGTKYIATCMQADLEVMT

[2] = Single dose toxicity test in mice; conditions: for effect on body weight: i.g single dose 250, 500 or 1000 mg/kg (data not shown); for mortality: i.g single dose 250, 500 or 1000 mg/kg, 7 days; for LD50: oral (i.g) single dose, monitored 7 days
Procedure: Single dose toxicity tests for 7c and 7m were carried out in mice as well. After 7c or 7m was given by intragastric administration (i.g) at a dose of 250, 500 or 1000 mg/kg, the mice were closely monitored for 7 days.
Animals were purchased from the Institute of Laboratory Animal Sciences, Chinese Academy of Medical Sciences and Peking Union Medical College, Beijing, China. All experimental procedures were approved by Biomedical Ethics Committee of Chinese Academy of Medical Sciences of animal use and protection. The mice were cared according to the institutional guidelines of the Chinese Academy of Medical Sciences. Male and female KunMing mice with weight of 22.0±1.0 g were fed with regular chow and housed in an air-conditioned room. The mice were randomly divided into five groups with 10 mice each (five male plus five female). The each group of mice were administrated orally 7c and 7m at 0 (saline as control), 500 or 1000 mg/kg, respectively. The test compounds were given in a single-dosing. Body weight as well as survival was closely monitored.

HCV = conditions: Huh7.5 cells
Source text: To further confirm the mode of action for the activity against HCV, down-regulation of Hsc70 expression by 7c was also examined by Western Blot.

[3] = Oral pharmacokinetics in male ICR mice; conditions: for MRT / t1/2 / AUC 0−t / Cmax / Tmax: oral (ig) 25 mg/kg; for Cmax / Tmax: plasma
Procedure: The study compounds were given to male ICR mice via oral (ig, 25 mg/kg) route.
Male male ICR mice (20–40 g) were obtained from SLAC Laboratory Animal Inc. (Shanghai, China). Three male ICR mice were used in each study. Each of them was dosed with a tested compound at 25 mg/kg via oral administration. Nine blood samples were collected at 0, 0.25, 0.50, 1.0, 2.0, 4.0, 6.0 and 24 h and were immediately centrifuged to separate the plasma fractions. The separated plasma samples were stored at –20°C for analysis. Concentration-versus-time profiles were obtained for each analyte, and standard non-compartmental analysis was performed on the data using WinNonlin software, version 5.3, to recover the AUC and other non-compartmental parameters.

[4] = cytotoxicity, Huh7.5 cells, MTT, 72 h, read-out: CC50

| Compound | SI (selectivity index, CC50/EC50) [1] | pEC50 [1] | CC50 (Huh7.5 cells) [µM] | further results |
| --- | --- | --- | --- | --- |
| O=C(O)CCCC1C2CCCN3CCCC(CN1Cc1ccc(OC(F)(F)F)cc1)C23 (stereo not drawn) [Compound 12f, 12-N-4-Trifluoromethoxybenzyl sophoridinic acid] | 12.7 | 4.95 | 141 | – |
| Cc1cccc(CN2CC3CCCN4CCCC(C2CCCC(=O)O)C34)c1 (stereo not drawn) [Compound 12b, 12-N-3-Methylbenzyl sophoridinic acid] | 2.9 | 3.34 | 1320 | – |
| COc1ccc(CN2CC3CCCN4CCCC(C2CCCC(=O)O)C34)cc1 (stereo not drawn) [Compound 12a, 12-N-4-Methoxybenzyl sophoridinic acid] | 18.5 | 4.24 | 1060 | – |
| O=C(O)CCCC1C2CCCN3CCCC(CN1Cc1ccc(F)cc1)C23 (stereo not drawn) [Compound 7f, 12-N-4-Fluorobenzyl matrinic acid] | >15.1 | 3.75 | > 2670 | – |
| O=C(O)CCCC1C2CCCN3CCCC(CN1Cc1ccccc1F)C23 (stereo not drawn) [Compound 12d, 12-N-2-Flurobenzyl sophoridinic acid] | <1.7 | < 3.05 | 1550 | – |
| O=C(O)CCCC1C2CCCN3CCCC(CN1Cc1ccc(Cl)cc1)C23 (stereo not drawn) [Compound 7i, 12-N-4-Chlorobenzyl matrinic acid] | 18.4 | 3.87 | 2500 | – |
| Cc1cccc(CN2C[C@@H]3CCCN4CCC[C@@H]([C@H]34)[C@H]2CCCC(=O)O)c1 [Compound 7b, 12-N-3-Methylbenzyl matrinic acid] | 9.0 | 3.58 | 2390 | – |
| O=C(O)CCCC1C2CCCN3CCCC(CN1Cc1cccc(Cl)c1)C23 (stereo not drawn) [Compound 7h, 12-N-3-Chlorobenzyl matrinic acid] | >28.9 | 4.05 | > 2560 | anti-HCV activity (in words) [1]: slight improvement in comparison to the lead |
| O=C(O)CCCC1C2CCCN3CCCC(CN1Cc1ccc(Br)cc1)C23 (stereo not drawn) [Compound 7l, 12-N-4-Bromobenzyl matrinic acid] | 10.3 | 3.92 | 1230 | – |
| O=C(O)CCCC1C2CCCN3CCCC(CN1Cc1cccc(F)c1)C23 (stereo not drawn) [Compound 7e, 12-N-3-Fluorobenzyl matrinic acid] | 8.4 | 3.77 | 1410 | – |
| O=C(O)CCC[C@@H]1[C@H]2CCCN3CCC[C@@H](CN1Cc1ccc(OC(F)(F)F)cc1)[C@@H]23 [Compound 7n, 12-N-4-Trifluoromethoxybenzyl matrinic acid] | 15.5 | 4.05 | 1380 | – |
| O=C(O)CCCC1C2CCCN3CCCC(CN1Cc1ccc(Cl)c(Cl)c1)C23 (stereo not drawn) [Compound 7j, 12-N-3,4-Dichlorobenzyl matrinic acid] | 3.7 | 3.57 | 1010 | – |
| O=C(O)CCCC1C2CCCN3CCCC(CN1Cc1ccc(Cl)cc1Cl)C23 (stereo not drawn) [Compound 7k, 12-N-2,4-Dichlorobenzyl matrinic acid] | 1.3 | 3.34 | 578 | – |
| O=C(O)CCCC1C2CCCN3CCCC(CN1Cc1ccc(F)cc1)C23 (stereo not drawn) [Compound 12e, 12-N-4-Flurobenzyl sophoridinic acid] | 10.4 | 3.97 | 1120 | – |
| Cc1ccc(CN2CC3CCCN4CCCC(C2CCCC(=O)O)C34)cc1 (stereo not drawn) [Compound 7c, 12-N-4-Methylbenzyl matrinic acid] | – | 4.29 | – | improvement in anti-HCV activity as compared to 1 [1]: 2 fold; CC50 (Huh7.5 cells; [4]): > 2700 µM; HCV NS3 level (HCV NS3; Huh7.5 cells, 62.5 µg/mL): significantly reduced; intracellular HCV-NS3 protein (HCV NS3; Huh7.5 cells, 31.25, 62.5, 125 and 250 µg/mL, 72 h): decreased dose-dependently; Hsc70 protein expression (Hsc70): afforded activity in down-regulating Hsc70 protein expression; also recorded: decreased dose-dependently; HCV NS3/4A protease activity after treatment (HCV NS3/4A protease): not altered; effect on body weight [2]: no effect; mortality [2]: No mouse died; LD50 [2]: > 1000 mg/kg; therapeutic efficacy before, at and after infection (HCV): anti-HCV pattern close to that of 7m; MRT [3]: 1.68 h; t1/2 [3]: 1.5 h; AUC 0−t ([3]; 0 to 24 h): 13.4 µM·h; Cmax [3]: 13.2 µM; Tmax [3]: 0.25 h |
| C=Cc1ccc(CN2C[C@@H]3CCCN4CCC[C@@H]([C@H]34)[C@H]2CCCC(=O)O)cc1 [Compound 7m, 12-N-4-Vinylbenzyl matrinic acid] | 39.2 | 5.33 | – | CC50 (Huh7.5 cells; [4]): 184 µM; HCV NS3/4A protease activity after treatment (HCV NS3/4A protease): not altered; effect on body weight [2]: no effect; mortality [2]: No mouse died; LD50 [2]: over 1000 mg/kg; therapeutic efficacy before, at and after infection (HCV): effective before, at and after HCV infection; Cmax relative to that of 7c ([3]; oral 25 mg/kg): 1.8 fold; AUC relative to that of 7c ([3]; oral 25 mg/kg, 0 to 24 h): approximately 2 fold; MRT [3]: 1.65 h; t1/2 [3]: 2.01 h; AUC 0−t ([3]; 0 to 24 h): 25.9 µM·h; Cmax [3]: 23.2 µM; Tmax [3]: 0.5 h |
| O=C(O)CCCC1C2CCCN3CCCC(CN1Cc1ccccc1Cl)C23 (stereo not drawn) [Compound 7g, 12-N-2-Chlorobenzyl matrinic acid] | 7.3 | 3.75 | 1290 | – |
| Cc1ccccc1CN1CC2CCCN3CCCC(C1CCCC(=O)O)C23 (stereo not drawn) [Compound 7a, 12-N-2-Methylbenzyl matrinic acid] | 5.6 | 3.69 | 1130 | – |
| Cc1ccc(CN2CC3CCCN4CCCC(C2CCCC(=O)O)C34)cc1 (stereo not drawn) [Compound 12c, 12-N-4-Methylbenzyl sophoridinic acid] | 4.4 | 3.30 | 2200 | – |
| O=C(O)CCC[C@@H]1[C@H]2CCCN3CCC[C@@H](CN1Cc1ccccc1F)[C@@H]23 [Compound 7d, 12-N-2-Fluorobenzyl matrinic acid] | 19.0 | 4.06 | 1660 | – |
| O=C(O)CCCC1C2CCCN3CCCC(CN1Cc1cccc4ccccc14)C23 (stereo not drawn) [Compound 7o, 12-N-1-Naphthylmethylenyl matrinic acid] | <1.6 | < 3.09 | 1300 | anti-HCV activity (in words) [1]: lost the activity completely |
